Our source for the RP-LC retention time values is the METLIN SMRT retention time set (Domingo-Almenara et al. 2019).

This data set is described as follows: gradient 5% acetonitrile 3 min, to 50% in 2 min, to 85% in 15 min, held 3 min, 100 µL/min. As to conditions: column: Zorbax Extend-C18 2.1 x 50 mm; eluents: water / acetonitrile, 0.1% formic acid. In a few lines: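 Values are retention times taken from adduct peaks that software picked and an analyst inspected. The pure standards were run as mixtures of ~100 molecules on HPLC linked to a quadrupole time-of-flight mass spectrometer, in positive and negative ionization mode. A Zorbax Extend-C18 column (2.1 × 50 mm, 1.8 μm) was used at 100 μL/min with water and acetonitrile, each including 0.1% formic acid.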
`COc1ccc(N2CC(c3noc(-c4cccc(OC(F)(F)F)c4)n3)CC2=O)cc1` (centres undefined) displayed an RP-LC retention time of 1050 s.
In turn, `CC(=O)Nc1ccc(NC(=O)c2cc3sc(C)c(CN4CCCCC4)c3[nH]2)cc1` gave an RP-LC retention time of 609 s.
Molecule `CN1CC[C@@H]2CN3CCc4cccc(c43)[C@@H]2C1` registered an RP-LC retention time of 644 s.
In turn, `O=C(NCC(F)(F)F)C1CCN(C(=O)Cc2noc3ccccc23)CC1` displayed an RP-LC retention time of 687 s.
`COc1ccc(C)cc1NC(=O)N1CCC2(CC1)NC(=O)c1ccc(F)cc1N2C` gave an RP-LC retention time of 777 s.
For `CN1CCN(CCNC(=O)C2CCc3sc(C(=O)N4CCCC4)cc3C2)CC1` (centres undefined) the value was 569 s; for `CCn1ccc(C(=O)NCC23CCC=C2N(CC2CC2)C(=O)CC3)n1` (centres undefined), 770 s.
Consider `COc1cccc(CCC(=O)N(C)C[C@@]23CCC[C@H]2N(C)C(=O)CC3)c1`, for which the RP-LC retention time came out at 571 s.
`COC[C@@H]1CN(S(=O)(=O)c2cccnc2)C[C@H]1c1ccncc1` came in with an RP-LC retention time of 652 s.
Molecule `COc1ccc(C2Cn3cnc(C(=O)N4CCC(C(=O)NC(C)c5ccccc5)CC4)c3CO2)cc1` (centres undefined) had an RP-LC retention time of 751 s.
On to `CCC(C)(C)C(=O)NC1CCN(C2=NS(=O)(=O)C(c3ccc(C)c(C)c3)=C2C)CC1`, for which the RP-LC retention time is 950 s.
Turning to `COc1ccc(CN2CCC(C3CCN(S(C)(=O)=O)CC3)C2)cc1OC` (centres undefined), the RP-LC retention time was found to be 580 s.
For `CCc1nnc2ccc(NC(=O)Nc3ccc(C)cc3)cn12` the value was 710 s; for `Cc1noc(C2CN(C(=O)CCC3CCCC3)CC23CCOCC3)n1` (centres undefined), 814 s.
In turn, `CN(C)[C@@H]1CN(C(=O)c2cccc(Br)c2)C[C@H]1CO` displayed an RP-LC retention time of 573 s.
The result for `CCN1CCN(CCNC(=O)CN2C(=O)CSc3cccn3-c3ccccc32)CC1` reads 600 s; that for `Cc1cc2nn(CC(=O)Nc3ccc(C(C)C)cc3)c(=O)n2c(-c2ccccc2)n1`, 862 s.
`CCCC(=O)N1CC(=O)Nc2ccc(Br)cc2C1c1ccccc1` (centres undefined) returned an RP-LC retention time of 892 s.
Molecule `COc1ccc(NC(=O)C2CCCN(c3cnc4nccnc4c3)C2)cc1Cl` (centres undefined) displayed an RP-LC retention time of 746 s.
Turning to `COc1ccc(-c2nnc(NC(=O)CSc3nc4ccccc4s3)s2)cc1`, the RP-LC retention time was 918 s.
For `Cc1c(F)cccc1NC(=O)N1CCCC(Cn2cnc3cccnc32)C1` (centres undefined), the RP-LC retention time is 709 s.
`Cc1ccsc1C(=O)N1C[C@@H]2CCCN3CCC[C@@H]([C@H]23)[C@H]1CCCC(=O)NCC1CC1` gave an RP-LC retention time of 612 s.
With `O=C(NC1(c2nc(-c3cnccn3)no2)CCCCC1)c1cc2cc(Cl)ccc2[nH]1`, the RP-LC retention time stood at 916 s.
Regarding `CC(C)c1csc(-c2csc(S(=O)(=O)NCc3ccccc3)c2)n1`, the RP-LC retention time was found to be 1040 s.
On to `CC(C)NC(=O)c1ccc(OCC2CCCN(C(=O)c3ccc(F)cc3Cl)C2)cc1` (centres undefined), for which the RP-LC retention time was found to be 887 s.
With `CCNC(=O)Nc1ccc(OCC(=O)NCc2cc(OC)cc(OC)c2)nc1`, the RP-LC retention time is 691 s.
`O=C(NC1CCN(c2cc(-c3cccs3)[nH]n2)C1)c1cccc(OC(F)(F)F)c1` (centres undefined) registered an RP-LC retention time of 828 s.
Take `COCC(=O)Nc1ccccc1NC(=O)c1ccco1`: the RP-LC retention time amounted to 618 s.
`COCCCn1c(=O)c2ccccc2n(Cc2nc(-c3ccc(OC)cc3OC)no2)c1=O`: the RP-LC retention time is 884 s.
Molecule `O=C(Cc1ccsc1)NCC1CCCCC(=O)N1` (centres undefined) registered an RP-LC retention time of 619 s.
For the molecule `N#Cc1ccc(NC(=O)Cn2cccc(-c3nc(-c4ccc(F)cc4)no3)c2=O)cc1`, the RP-LC retention time was 857 s.
For `CC(C)C(=O)N1CCCCCCN(C)C(=O)[C@@H]2CCC[C@@H]21` the value was 760 s; for `Cc1cc(C)cc(Nc2c(-c3cc(Br)ccc3O)nc3ncccn23)c1`, 1140 s; for `Cc1cccc(Cn2ccc3ccn(CC(=O)N4CCOc5ccc(C)cc54)c(=O)c32)c1`, 1090 s.
`Cc1ccc(NC(=O)N2CCc3nc[nH]c3C2)cc1Cl` came in with an RP-LC retention time of 612 s.
For `COc1ccc(-c2noc(Cc3nnc(-c4ccc(C)c(F)c4)o3)n2)cc1`, the RP-LC retention time was 1050 s.
As to `CC(C)n1cc(S(=O)(=O)N2CCN(c3ccccc3)CC2)c2cccnc21`, the RP-LC retention time was determined as 1070 s.
As for `Cc1noc(-c2ccc(=O)n(Cc3ccc(F)cc3)n2)n1`, the RP-LC retention time is 807 s.
With `CC(=O)O[C@H]1C[C@@H]2OC3C=C(C)CCC3(C)[C@@]1(C)[C@@]21CO1` (some centres undefined), the RP-LC retention time is 833 s.
`Cc1ccc(CNC(=O)c2cc3sccc3n2Cc2ccc(F)cc2)cc1` gave an RP-LC retention time of 888 s.
The molecule `CCOc1ccc(-n2ccn3cc(-c4ccc(F)cc4F)nc3c2=O)cc1` yielded an RP-LC retention time of 916 s.
For the molecule `O=C(Nc1nnc(C2=COCCO2)o1)c1cc2cc([N+](=O)[O-])ccc2s1`, the RP-LC retention time is 759 s.
For `Cc1ccc(-c2noc(Cc3nnc(-c4cc(C)cc(C)c4)o3)n2)cc1` the value was 1190 s; for `CCc1ccccc1NC(=O)c1nnn(-c2ccc3noc(-c4ccccc4)c3c2)c1C`, 1160 s.
In turn, `O=C([C@@H]1C[C@H](Oc2ccccc2)CN1C(=O)C1CCCC1)N1CCCC1` came in with an RP-LC retention time of 784 s.
In turn, `Cc1nc(-c2cc(S(=O)(=O)N3CCN(c4cccc(Cl)c4)CC3)c(C)s2)cs1` registered an RP-LC retention time of 1270 s.
`O=C(NCCCc1ccccc1)C1CCCN(C(=O)Cc2cccc3ccccc23)C1` (centres undefined) showed an RP-LC retention time of 944 s.
For `COCCc1noc(C2CN(S(=O)(=O)Cc3ccccc3)C2)n1` the value was 780 s; for `CN1CCN(C(=O)C2CCN(S(=O)(=O)c3cc(-c4noc(C5CCC5)n4)cs3)CC2)CC1`, 672 s; for `Cc1sc(C)c(S(=O)(=O)NCC2CCCO2)c1-c1cc(C(F)(F)F)on1` (centres undefined), 1020 s.
Turning to `CC(=O)N(Cc1nn(C)c2c1CN(S(=O)(=O)c1ccccc1F)CC2)c1ccccc1`, the RP-LC retention time came out at 779 s.
As for `CS(=O)(=O)N1CCCc2cc(C(=O)Nc3ccc(Br)cc3)ccc21`, the RP-LC retention time came to 951 s.
For `COc1ccccc1OCC(O)COC(N)=O` (centres undefined), the RP-LC retention time was 650 s.
Molecule `Cc1cc(N2CCN(C(=O)Cc3ccccc3Br)CC2)nc2nnc(C)n12` came in with an RP-LC retention time of 623 s.
In the case of `Cc1cc(C(=O)N2C[C@@H](CO)[C@H](N(C)C)C2)ccc1Br`, the RP-LC retention time turned out to be 597 s.
With `CN(C(=O)c1ccc2c(c1)OCO2)C1CCc2nn(CC3CC3)c(=O)n2CC1` (centres undefined), the RP-LC retention time is 670 s.
For `COc1cccc(-c2nnc(Cc3nc(-c4cccc(C)c4)no3)o2)c1`, the RP-LC retention time was 1050 s.
Regarding `CC1=NS(=O)(=O)N(Cc2ccccc2)C=C1C(=O)OCc1nc(-c2ccc(Cl)cc2)no1`, the RP-LC retention time worked out at 1220 s.
`O=C(COc1ccc(Cl)cc1Cl)NCC1CCN(C(=O)Oc2ccccc2)CC1` registered an RP-LC retention time of 987 s.
On to `Cc1ccc2nc(-c3cc(Br)ccc3F)c(Nc3ccc4c(c3)OCCO4)n2c1`, for which the RP-LC retention time amounted to 737 s.
With `CCc1ccc(-c2ccc(=O)n(CCc3nc(-c4ccc(F)cc4)no3)n2)cc1`, the RP-LC retention time was 1120 s.
For `Cc1cc(C(=O)N[C@@H]2CN(c3ncccn3)C[C@H]2CO)c(C)o1`, the RP-LC retention time is 616 s.
The result for `O=C(NCC(=O)N1CCCc2ccccc21)c1ccccc1Cl` reads 835 s; that for `COc1cc(NC(=O)N2CCCC(Cn3c(C)nc4cccnc43)C2)cc(OC)c1` (centres undefined), 639 s.
`O=C(Cn1cccc1-c1nnc(C2CC2)o1)Nc1ccc(Cl)cc1F` had an RP-LC retention time of 908 s.
For `COc1ccc(-c2cc3nn(CC(=O)NC(C)(C)C)c(=O)n3c(C)n2)cc1` the value was 842 s.
`CC(=O)Nc1ccc2c(c1)CN(C(=O)c1ccc(F)cc1F)C(C(=O)N(C)C)C2` (centres undefined) displayed an RP-LC retention time of 661 s.
The molecule `COc1ccccc1NC(=O)N1CC(c2nc(C)no2)C2(CCOCC2)C1` (centres undefined) gave an RP-LC retention time of 676 s.
`CCOC(=O)c1ccc(NS(=O)(=O)c2cc3n(c2)CCN(C(C)C)C3=O)cc1`: the RP-LC retention time was 777 s.
`O=C(CCC1CCCC1)NCCC1CCN(C(=O)Nc2ccccc2)CC1`: the RP-LC retention time came out at 876 s.
For the molecule `CC1CCN(C(=O)c2nnc(-c3ccc(S(=O)(=O)N4CCOCC4)cc3)o2)CC1`, the RP-LC retention time stood at 866 s.
Take `CCOc1ccc(C(=O)NC2CCN(c3cc(-c4ccc(Cl)cc4)[nH]n3)C2)cc1` (centres undefined): the RP-LC retention time is 820 s.
`O=C(NCCN1CCOCC1)c1ccc2c(c1)CCCN2S(=O)(=O)c1ccc(Cl)cc1` came in with an RP-LC retention time of 689 s.
`COc1cc([C@@H]2c3cc4c(cc3[C@H](O)[C@@H](CO)[C@@H]2C(=O)NCc2ccc(C)o2)OCO4)cc(OC)c1OC` yielded an RP-LC retention time of 674 s.
For `Cc1c(S(=O)(=O)NCC2CC2)c(C)n(C)c1-c1nnc(C2CCC2)o1` the value was 899 s; for `COCCNS(=O)(=O)c1ccc(Cl)c(-c2nnc(-c3ccccc3)o2)c1`, 870 s; for `O=C(NCCN1CCOCC1)C1c2ccccc2CC(=O)N1Cc1ccccc1` (centres undefined), 603 s.
For `COc1ccc(C)cc1NC(=O)N1C[C@@H]2C[C@H](NC(=O)c3cccs3)[C@H]1C2` the value was 827 s; for `Cc1nn(-c2nc(-c3ccc(Cl)cc3)cs2)c(C)c1CC(=O)N1CCCC1`, 1120 s.
